We go through 6 compounds from publication PMC10584170, “Machine learning-based phenotypic imaging to characterise the targetable biology of Plasmodium falciparum male gametocytes for the development of transmission-blocking antimalarials” (PLOS Pathogens, 2023).

For assay [1], the system named is P. falciparum male gametocytes. The assay can be described thus: P. falciparum Dual Gamete Formation Assay (PfDGFA), male readout (exflagellation). The format is cell-based, Plasmodium falciparum NF54. Conditions: for Average inhibition male (%): average of replicates; for % inhibition male (individual replicates) R1: replicate R1; for % inhibition male (individual replicates) R3: replicate R3; for % inhibition male (individual replicates) R4: replicate R4. The essentials: (§1)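 Two sex-specific readouts come from one well: male exflagellation centres recorded by brightfield video right after activation, and female gametes scored by Cy3-anti-Pfs25 fluorescence after 24 h at 28°C.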

Assay [2] relates to P. falciparum female gametocytes. The assay can be described thus: P. falciparum Dual Gamete Formation Assay (PfDGFA), female readout (Pfs25-positive female gametes). It counts as cell-based, Plasmodium falciparum NF54. Conditions: for Average inhibition female (%): average of replicates; for % inhibition female (individual replicates) R1: replicate R1; for % inhibition female (individual replicates) R3: replicate R3; for % inhibition female (individual replicates) R4: replicate R4. A digest of the protocol:
as §1

[3] abbreviates: 2µM, 24h preincubation with gametocytes prior to induction of gametogenesis.
[4] abbreviates: 2µM, 24h preincubation, number of replicates with >50% inhibition in the male readout.
[5] abbreviates: 2µM, 24h preincubation, number of replicates with >50% inhibition in the female readout.
[6] abbreviates: PfDGFA at 2µM, 24h preincubation with gametocytes prior to induction of gametogenesis.
Where [7] appears, read: PfDGFA at 2µM, 24h preincubation.

SMILES strings stand for the structures.

As to `CC(Cc1ccc(NC(=O)c2ccc(CNCCc3ccccc3)cc2)cc1)NCCc1cccc(Cl)c1.Cl` (centres unmarked) [TCMDC-139867], in assay [1] (setting [3]), the “Average inhibition male (%)” value stood at 35.8%, the “% inhibition male (individual replicates) R1” value is on record as 30.2%, the “% inhibition male (individual replicates) R3” value was 5.8% and the “% inhibition male (individual replicates) R4” value was 68.9%. This compound yielded a HitlevelM in assay [1] (2µM, 24h preincubation, hits selected on >50% inhibition in the male readout across replicates) of 1. The Activity in assay [1] (PfDGFA at 2µM, 24h preincubation, hit = >50% inhibition in male or female readout in at least 3 replicates, 0 = no class assigned) is given as 0. Further, in assay [2] (setting [3]), the “Average inhibition female (%)” value was found to be 17.5%, the “% inhibition female (individual replicates) R1” value was determined as 19.8%, the “% inhibition female (individual replicates) R3” value stood at 17.3% and the “% inhibition female (individual replicates) R4” value is 1.2%. In addition, the HitlevelF in assay [2] (2µM, 24h preincubation, hits selected on >50% inhibition in the female readout across replicates) was found to be 0.
As for `CCCCCCCN1CC[C@@H](CCCc2ccnc3ccc(OC)cc23)[C@@H](CNC)C1.O=C(O)C(=O)O` [TCMDC-139875], in assay [1] (setting [3]), the “Average inhibition male (%)” value was 45.5%, the “% inhibition male (individual replicates) R1” value is 37.4%, the “% inhibition male (individual replicates) R3” value was determined as 18.3% and the “% inhibition male (individual replicates) R4” value was found to be 73.6%. This compound displayed a HitlevelM in assay [1] (setting [4]) of 2. In assay [2] (setting [3]), the “Average inhibition female (%)” value worked out at 34.8%, the “% inhibition female (individual replicates) R1” value turned out to be 28.9%, the “% inhibition female (individual replicates) R3” value was 7.1% and the “% inhibition female (individual replicates) R4” value was 50.9%. Besides, the HitlevelF in assay [2] (setting [5]) is given as 2.
Regarding `COc1ccc(OC)c(C=CC(=O)NC2CCC(CN3CCC(c4c[nH]c5ccccc45)CC3)CC2)c1` (centres unmarked) [TCMDC-139893], in assay [1] (setting [6]), the “% inhibition male (individual replicates) R1” value is 4.2%, the “% inhibition male (individual replicates) R3” value is -21.0% and the “% inhibition male (individual replicates) R4” value turned out to be 20.2%. Besides, the “Average inhibition male (%)” value in assay [1] (setting [7]) was 1.9%. In assay [2] (setting [6]), the “% inhibition female (individual replicates) R1” value was determined as 6.5%, the “% inhibition female (individual replicates) R3” value is recorded as -21.7% and the “% inhibition female (individual replicates) R4” value is -6.1%. For the same compound, the “Average inhibition female (%)” value in assay [2] (setting [7]) is -1.6%.
Consider `CN(C)CCCNCc1ccc(-c2ccc(C(F)(F)F)cc2)cc1` [TCMDC-140011], for which, in assay [1] (setting [3]), the “Average inhibition male (%)” value was 54.2%, the “% inhibition male (individual replicates) R1” value came out at 60.9%, the “% inhibition male (individual replicates) R3” value was found to be 33.7% and the “% inhibition male (individual replicates) R4” value worked out at 61.6%. This compound displayed a HitlevelM in assay [1] (setting [4]) of 3. In assay [2] (setting [3]), the “Average inhibition female (%)” value is recorded as 26.9%, the “% inhibition female (individual replicates) R1” value is 39.3%, the “% inhibition female (individual replicates) R3” value is listed as -6.8% and the “% inhibition female (individual replicates) R4” value is recorded as 25.9%. In addition, the HitlevelF in assay [2] (setting [5]) is reported as 0.
As for `OCc1c(Cl)cc(Cl)cc1CNCCCNc1nc2ccccc2[nH]1` [TCMDC-140012], in assay [1] (setting [6]), the “% inhibition male (individual replicates) R1” value is recorded as -9.5% and the “% inhibition male (individual replicates) R4” value was -7.6%. Further, the “Average inhibition male (%)” value in assay [1] (setting [7]) is -5.6%. Also, in assay [2] (setting [6]), the “% inhibition female (individual replicates) R1” value was -1.6%, the “% inhibition female (individual replicates) R3” value is -10.9% and the “% inhibition female (individual replicates) R4” value was -3.1%. Moreover, in assay [2] (setting [7]), the “Average inhibition female (%)” value was -6.6%.
Take `Nc1ccc2[nH]cc(C3CCN(CCC4CCN(C(=O)/C=C/c5ccc(Cl)c(Cl)c5)CC4)CC3)c2n1` [TCMDC-140062]: in assay [1] (setting [3]), the “Average inhibition male (%)” value stood at 34.7%, the “% inhibition male (individual replicates) R1” value was determined as 41.7%, the “% inhibition male (individual replicates) R3” value is -5.5% and the “% inhibition male (individual replicates) R4” value turned out to be 54.9%. The HitlevelM in assay [1] (setting [4]) stood at 1. Further, in assay [2] (setting [3]), the “Average inhibition female (%)” value turned out to be 24.0%, the “% inhibition female (individual replicates) R1” value stood at 25.9%, the “% inhibition female (individual replicates) R3” value is listed as 21.4% and the “% inhibition female (individual replicates) R4” value worked out at 19.8%. Also, in assay [2] (setting [5]), the HitlevelF is reported as 0.
